Results as given in patent US7300946B2, “N-(substituted arylmethyl)-4-(disubstituted methyl) piperidines and pyridines” (Bayer CropScience AG, priority 2002, dated 2007).

Tested on: tobacco budworm (Heliothis virescens [Fabricius])
Assay: surface-treated diet test against the tobacco budworm
Type: in vivo
Conditions: tobacco budworm second instar larvae, surface-treated diet, 0.25 millimoles of candidate insecticide on the surface of the diet, five-day exposure; for Percent Mortality: compared to total number of insects infested; for Percent Growth Inhibition: inhibition of insect weight relative to untreated controls
In short: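 Wheat germ artificial diet surface-treated with 40 µL of 50 mM DMSO stock diluted 1:7 in 1:1 water/acetone (0.25 millimolar on diet), or sub-multiples for rate tests. One second-instar larva per well, 25° C, 60% RH, 5 days; percent weight inhibition vs DMSO controls and percent mortality.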

SMILES	Percent Mortality [%]	Percent Growth Inhibition [%]
O=C(Nc1ccc(C(F)(F)F)nc1)OC(c1ccc(C(F)(F)F)cc1)C1CCN(Cc2ccc(Oc3ccccn3)cc2)CC1 (stereo not drawn) [Compound 448]	100	100
O=C(Nc1ccncc1)OC(c1ccc(C(F)(F)F)cc1)C1CCN(Cc2ccc(Oc3ccccn3)cc2)CC1 (stereo not drawn) [Compound 450]	0	62
O=C(Nc1cc(Cl)nc(Cl)c1)OC(c1ccc(C(F)(F)F)cc1)C1CCN(Cc2ccc(Oc3ccccn3)cc2)CC1 (stereo not drawn) [Compound 451]	100	100
FC(F)(F)c1ccc(C(Oc2ccc(Cl)nn2)C2CCN(Cc3ccc(Oc4ccccn4)cc3)CC2)cc1 (stereo not drawn) [Compound 452]	67	100
Cn1nnc(-c2ccc(CN3CCC(C(Oc4ccc(Cl)nn4)c4ccc(OC(F)(F)F)cc4)CC3)cc2)n1 (stereo not drawn) [Compound 453]	83	100
CCON=Cc1ccc(CN2CCC(C(Oc3ccc(C(F)(F)F)cc3)c3ccc(C(F)(F)F)cc3)CC2)cc1 (stereo not drawn) [Compound 454]	100	100
FC(F)(F)c1ccc(OC(c2ccc(C(F)(F)F)cc2)C2CCN(Cc3ccc(Oc4ccccn4)cc3)CC2)cc1 (stereo not drawn) [Compound 455]	100	100
FC(F)(F)Oc1ccc(C(Oc2ccc(C(F)(F)F)cc2)C2CCN(Cc3ccc(Oc4ncccn4)cc3)CC2)cc1 (stereo not drawn) [Compound 456]	17	100
CC(C)OC(=O)Nc1ccc(COC(c2ccc(C(F)(F)F)cc2)C2CCN(Cc3ccc(NC(=O)OC(C)C)cc3)CC2)cc1 (stereo not drawn) [Compound 457]	0	16
O=C(Nc1ccc(F)cc1)OC(c1ccc(OC(F)(F)F)cc1)C1CCN(Cc2ccccc2)CC1 (stereo not drawn) [Compound 458]	0	94
O=C(Nc1ccc(F)cc1)OC(c1ccc(OC(F)(F)F)cc1)C1CCN(Cc2ccc(Cl)cc2)CC1 (stereo not drawn) [Compound 459]	0	99
O=C(Nc1cc(F)cc(F)c1)OC(c1ccc(OC(F)(F)F)cc1)C1CCN(Cc2ccc(Cl)cc2)CC1 (stereo not drawn) [Compound 460]	0	100
O=C(Nc1cc(F)cc(F)c1)OC(c1ccc(OC(F)(F)F)cc1)C1CCN(Cc2ccc(F)cc2)CC1 (stereo not drawn) [Compound 461]	0	98
O=C(Nc1cc(F)cc(F)c1)OC(c1ccc(OC(F)(F)F)cc1)C1CCN(Cc2ccc(I)cc2)CC1 (stereo not drawn) [Compound 462]	83	100
O=C(Nc1ccc(Cl)cc1)OC(c1ccc(C(F)(F)F)cc1)C1CCN(Cc2ccc(O)cc2)CC1 (stereo not drawn) [Compound 463]	0	65
O=C(Nc1cc(F)cc(F)c1)OC(c1ccc(C(F)(F)F)cc1)C1CCN(Cc2ccc(O)cc2)CC1 (stereo not drawn) [Compound 464]	0	63
Nc1ccc(CN2CCC(C(OC(=O)Nc3ccc(Cl)cc3)c3ccc(C(F)(F)F)cc3)CC2)cc1 (stereo not drawn) [Compound 465]	0	92
Nc1ccc(CN2CCC(C(OC(=O)Nc3cc(F)cc(F)c3)c3ccc(C(F)(F)F)cc3)CC2)cc1 (stereo not drawn) [Compound 466]	17	77
CCCCCc1ccc(CN2CCC(C(OC(=O)Nc3cc(F)cc(F)c3)c3ccc(C(F)(F)F)cc3)CC2)cc1 (stereo not drawn) [Compound 467]	0	68
COc1ccc(CN2CCC(C(OC(=O)Nc3ccc(F)cc3)c3ccc(OC(F)(F)F)cc3)CC2)cc1 (stereo not drawn) [Compound 468]	33	100
COc1ccc(CN2CCC(C(OC(=O)Nc3cc(F)cc(F)c3)c3ccc(OC(F)(F)F)cc3)CC2)cc1 (stereo not drawn) [Compound 469]	17	100
CCCOc1ccc(CN2CCC(C(OC(=O)Nc3ccc(Cl)cc3)c3ccc(Cl)cc3)CC2)cc1 (stereo not drawn) [Compound 470]	100	100
CCCOc1ccc(CN2CCC(C(OC(=O)Nc3ccc(F)cc3)c3ccc(Cl)cc3)CC2)cc1 (stereo not drawn) [Compound 471]	100	100
CCCOc1ccc(CN2CCC(C(OC(=O)Nc3cccc(C(F)(F)F)c3)c3ccc(Cl)cc3)CC2)cc1 (stereo not drawn) [Compound 472]	100	100
CCCOc1ccc(CN2CCC(C(OC(=O)Nc3ccc(C(F)(F)F)cc3)c3ccc(Cl)cc3)CC2)cc1 (stereo not drawn) [Compound 473]	100	100
CCCOc1ccc(CN2CCC(C(OC(=O)Nc3cc(F)cc(F)c3)c3ccc(Cl)cc3)CC2)cc1 (stereo not drawn) [Compound 474]	100	100

SMILES	Percent Mortality [%]	Percent Growth Inhibition [%]
CCCOc1ccc(CN2CCC(C(OC(=O)Nc3ccc(Cl)cc3)c3ccc(F)cc3)CC2)cc1 (stereo not drawn) [Compound 475]	100	100
CCCOc1ccc(CN2CCC(C(OC(=O)Nc3ccc(F)cc3)c3ccc(F)cc3)CC2)cc1 (stereo not drawn) [Compound 476]	100	100
CCCOc1ccc(CN2CCC(C(OC(=O)Nc3cccc(C(F)(F)F)c3)c3ccc(F)cc3)CC2)cc1 (stereo not drawn) [Compound 477]	100	100
CCCOc1ccc(CN2CCC(C(OC(=O)Nc3ccc(C(F)(F)F)cc3)c3ccc(F)cc3)CC2)cc1 (stereo not drawn) [Compound 478]	100	100
CCCOc1ccc(CN2CCC(C(OC(=O)Nc3cc(F)cc(F)c3)c3ccc(F)cc3)CC2)cc1 (stereo not drawn) [Compound 479]	100	100
CCCOc1ccc(CN2CCC(C(OC(=O)Nc3ccc(Cl)cc3)c3ccc(Cl)c(Cl)c3)CC2)cc1 (stereo not drawn) [Compound 480]	100	100
CCCOc1ccc(CN2CCC(C(OC(=O)Nc3ccc(F)cc3)c3ccc(Cl)c(Cl)c3)CC2)cc1 (stereo not drawn) [Compound 481]	100	100
CCCOc1ccc(CN2CCC(C(OC(=O)Nc3cc(F)cc(F)c3)c3ccc(Cl)c(Cl)c3)CC2)cc1 (stereo not drawn) [Compound 482]	100	100
CCCOc1ccc(CN2CCC(C(OC(=O)Nc3cccc(C(F)(F)F)c3)c3ccc(Cl)c(Cl)c3)CC2)cc1 (stereo not drawn) [Compound 483]	100	100
CCCOc1ccc(CN2CCC(C(OC(=O)Nc3ccc(C(F)(F)F)cc3)c3ccc(Cl)c(Cl)c3)CC2)cc1 (stereo not drawn) [Compound 484]	100	100
CCCOc1ccc(CN2CCC(C(OC(=O)Nc3ccc(Cl)cc3)c3cccc(C(F)(F)F)c3)CC2)cc1 (stereo not drawn) [Compound 485]	100	100
CCCOc1ccc(CN2CCC(C(OC(=O)Nc3ccc(F)cc3)c3cccc(C(F)(F)F)c3)CC2)cc1 (stereo not drawn) [Compound 486]	100	100
CCCOc1ccc(CN2CCC(C(OC(=O)Nc3cc(F)cc(F)c3)c3cccc(C(F)(F)F)c3)CC2)cc1 (stereo not drawn) [Compound 487]	100	100
CCCOc1ccc(CN2CCC(C(OC(=O)Nc3cccc(C(F)(F)F)c3)c3cccc(C(F)(F)F)c3)CC2)cc1 (stereo not drawn) [Compound 488]	100	100
CCCOc1ccc(CN2CCC(C(OC(=O)Nc3ccc(C(F)(F)F)cc3)c3cccc(C(F)(F)F)c3)CC2)cc1 (stereo not drawn) [Compound 489]	100	100
CCCOc1ccc(CN2CCC(C(OC(=O)Nc3ccc(Cl)cc3)c3ccc(C(F)(F)F)cc3)CC2)cc1 (stereo not drawn) [Compound 490]	100	100
CCCOc1ccc(CN2CCC(C(OC(=O)Nc3cc(F)cc(F)c3)c3ccc(C(F)(F)F)cc3)CC2)cc1 (stereo not drawn) [Compound 491]	100	100
CC(C)OC(=O)c1ccc(CN2CCC(C(OC(=O)Nc3ccc(Cl)cc3)c3ccc(C(F)(F)F)cc3)CC2)cc1 (stereo not drawn) [Compound 492]	100	100
CC(C)OC(=O)c1ccc(CN2CCC(C(OC(=O)Nc3cc(F)cc(F)c3)c3ccc(C(F)(F)F)cc3)CC2)cc1 (stereo not drawn) [Compound 493]	100	100
CC(=O)Nc1ccc(CN2CCC(C(OC(=O)Nc3ccc(Cl)cc3)c3ccc(C(F)(F)F)cc3)CC2)cc1 (stereo not drawn) [Compound 494]	0	77
CC(=O)Nc1ccc(CN2CCC(C(OC(=O)Nc3cc(F)cc(F)c3)c3ccc(C(F)(F)F)cc3)CC2)cc1 (stereo not drawn) [Compound 495]	0	98
CC(C)C(=O)Nc1ccc(CN2CCC(C(OC(=O)Nc3cc(F)cc(F)c3)c3ccc(C(F)(F)F)cc3)CC2)cc1 (stereo not drawn) [Compound 496]	100	100
CC(C)(C)C(=O)Nc1ccc(CN2CCC(C(OC(=O)Nc3cc(F)cc(F)c3)c3ccc(C(F)(F)F)cc3)CC2)cc1 (stereo not drawn) [Compound 497]	17	100
COC(=O)Nc1ccc(CN2CCC(C(OC(=O)Nc3cc(F)cc(F)c3)c3ccc(C(F)(F)F)cc3)CC2)cc1 (stereo not drawn) [Compound 498]	100	100
CCOC(=O)Nc1ccc(CN2CCC(C(OC(=O)Nc3cc(F)cc(F)c3)c3ccc(C(F)(F)F)cc3)CC2)cc1 (stereo not drawn) [Compound 499]	100	100
